Consider 28 compounds from patent US10544106B2, “Certain chemical entities, compositions, and methods” (NeuPharma, Inc., priority 2016, dated 2020).

The subject of experiment [1] is OCI-Ly10 cells. Kind of experiment: OCI-Ly10 cell proliferation assay (Alamar Blue, 72 hours). The format is cell-based. Conditions: Homo sapiens. As for the experimental part:
OCI-Ly10 cells were cultured in Iscove's DMEM supplemented with 20% fetal bovine serum and 1× penicillin/streptomycin/glutamine. The cells were maintained in T175 flasks under 5% CO2 in a 37 ° C. humidified incubator for 5 days prior to plating and assay.
Cells were pooled by centrifugation (200 ref, 8 minutes) and resuspended in fresh medium to a concentration of 2.00E+05 cells/ml. 200 µl of the cell suspension was added to each well (40,000 cells/well) of a black-walled 96 well plate to which 1 μl of compound (n=3 per concentration) in 100% DMSO (0.5% final concentration) was added per well. Vehicle and cell free wells were also included in the assay. The dosed cells were cultured under normal conditions for 72 hours.
Cell proliferation is measured using the dye Alamar Blue (resazurin). Resazurin is reduced to resorufin by cellular enzymes and is fluorescent (544 nm excitation, 612 nm emission). Fluorescence intensity is proportional to cell number. Resazurin was prepared in PBS to a stock concentration of 440 μM. 40 μl of the 440 μM resazurin stock solution was added 3 hours prior to the 72 hour termination of the assay. The plate was returned to normal culture conditions and fluorescence measurements were collected using a Cytation3 multimode plate reader (Biotek) at 72 hours.
The scale utilized in Table 8 is as follows: ++ less than 50 nM and + greater than 50 nM.
In general terms: Alamar Blue is a resazurin reagent that responds to reducing activity.

Experiment [2] deals with BTK (Homo sapiens (Human), UniProt Q06187). In words: Z'-LYTE kinase inhibition assay against BTK. The conditions noted are these: for IC50: series of concentrations, GraphPad Prism 5; for inhibition at 0.1 µM: compound at 100 nM, ATP concentration at Km. Format: biochemical. The procedure, abridged:
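Compounds were titrated over 10 points (3-fold steps, 1% DMSO) against BTK (1.04-10.4 ng) using Tyr 01 substrate at 2 μM and ATP at Km, pH 7.5 HEPES buffer with MgCl2 and EGTA. After one hour each of reaction and development at room temperature, fluorescence gave percent inhibition and IC50.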

BTK, sequence (Q06187 whole entry): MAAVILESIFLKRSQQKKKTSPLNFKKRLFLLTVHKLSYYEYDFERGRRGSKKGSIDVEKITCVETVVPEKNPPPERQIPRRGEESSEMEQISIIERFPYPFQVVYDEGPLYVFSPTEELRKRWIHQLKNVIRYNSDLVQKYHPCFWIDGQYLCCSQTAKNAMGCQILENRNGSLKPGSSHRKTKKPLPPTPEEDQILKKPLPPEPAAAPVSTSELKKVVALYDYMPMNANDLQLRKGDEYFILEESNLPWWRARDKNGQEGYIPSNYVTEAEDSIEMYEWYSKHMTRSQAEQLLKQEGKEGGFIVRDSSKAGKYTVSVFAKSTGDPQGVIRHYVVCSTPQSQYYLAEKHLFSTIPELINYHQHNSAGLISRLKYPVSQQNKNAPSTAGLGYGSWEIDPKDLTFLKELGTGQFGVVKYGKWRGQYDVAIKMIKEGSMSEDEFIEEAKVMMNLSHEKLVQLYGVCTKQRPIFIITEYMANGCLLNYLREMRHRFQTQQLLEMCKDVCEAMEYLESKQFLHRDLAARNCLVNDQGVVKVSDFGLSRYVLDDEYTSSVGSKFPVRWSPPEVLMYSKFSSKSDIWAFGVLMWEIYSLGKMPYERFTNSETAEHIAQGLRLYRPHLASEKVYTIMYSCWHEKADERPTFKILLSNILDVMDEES

By IC50 is commonly meant the concentration needed to halve the response being measured. A lower IC50 goes with greater potency in that assay. Turning to `C=CC(=O)N1CCC(c2nc(-c3ccc(C(=O)Nc4cc(C5CC5)ccn4)cc3)n3c(N)nccc23)C1` (centres unmarked) [C238, 4-(1-(1-acryloylpyrrolidin-3-yl)-5-amino-imidazo[1,5-c]pyrimidin-3-yl)-N-(4-cyclopropylpyridin-2-yl)benzamide], the 50% inhibitory concentration (IC50) in experiment [1] was < 50 nM; in experiment [2] it was < 100 nM. The inhibition is the share of the control response that was lost under treatment. Read a low inhibition as a response near the control. Turning to `C=CC(=O)N1CCC(c2nc(-c3ccc(Oc4ccccn4)cc3)n3c(N)nccc23)C1` (centres unmarked) [C186, 1-(3-(5-amino-3-(4-(pyridin-2-yloxy)phenyl)imidazo[1,5-c]pyrimidin-1-yl)pyrrolidin-1-yl)prop-2-en-1-one], the IC50 in experiment [1] was < 50 nM. In experiment [2], the inhibition at 0.1 µM was > 50% and the IC50 is < 100 nM. As for `C=CC(=O)N1CCC(c2nc(-c3ccc(C(=O)Nc4cc(C5CC5)ccn4)cc3)n3c(N)ncnc23)C1` (centres unmarked) [C199, 4-(8-(1-acryloylpyrrolidin-3-yl)-4-amino-imidazo[1,5-a][1,3,5]triazin-6-yl)-N-(4-cyclopropylpyridin-2-yl)benzamide], the IC50 in experiment [1] is < 50 nM; in experiment [2], < 100 nM. In addition, the inhibition at 0.1 µM in experiment [2] was > 50%. `C=CC(=O)Nc1cccc(-c2cc(-c3ccc(Oc4ccccn4)cc3)cc3cncnc23)c1` [C099, N-(3-(6-(4-(pyridin-2-yloxy)phenyl)quinazolin-8-yl)phenyl)acrylamide]: the results for the IC50 in experiment [1] and in experiment [2] were < 50 nM and < 100 nM, respectively. The inhibition at 0.1 µM in experiment [2] was > 50%. Regarding `C=CC(=O)Nc1cccc(-c2cc(-c3ccc(Oc4ncccc4F)cc3F)cc3cncnc23)c1` [C105, N-(3-(6-(2-fluoro-4-((3-fluoropyridin-2-yl)oxy)phenyl)quinazolin-8-yl)phenyl)acrylamide], the half-maximal inhibitory concentration (IC50) in experiment [1] is < 50 nM. Also, in experiment [2], the inhibition at 0.1 µM was > 50% and the 50% inhibitory concentration (IC50) is < 100 nM. On the same counts, the results for `C=CC(=O)N1CCC(c2nc(-c3ccc(Oc4cc(OC)ccn4)cc3)n3c(N)nccc23)C1` (centres unmarked) [C210, 1-(3-(5-amino-3-(4-((4-methoxypyridin-2-yl)oxy)phenyl)imidazo[1,5-c]pyrimidin-1-yl)pyrrolidin-1-yl)prop-2-en-1-one] are < 50 nM, > 50% and < 100 nM. For the compound `C=CC(=O)Nc1cccc(-c2cc(-c3ccc(Oc4cc(C5CC5)ccn4)cc3)cc3cncnc23)c1` [C183, N-(3-(6-(4-((4-cyclopropylpyridin-2-yl)oxy)phenyl)quinazolin-8-yl)phenyl)acrylamide], in experiment [1], the 50% inhibitory concentration (IC50) was < 50 nM. In experiment [2], the inhibition at 0.1 µM is > 50% and the IC50 is < 100 nM. On the same counts, the results for `C=CC(=O)N1CCC(c2cc(-c3ccc(C(=O)Nc4cc(F)ccn4)cc3)n3cnccc23)C1` (centres unmarked) [C065, 4-(5-(1-acryloylpyrrolidin-3-yl)pyrrolo[1,2-c]pyrimidin-7-yl)-N-(4-fluoropyridin-2-yl)benzamide] are < 50 nM, > 50% and < 100 nM. On the same counts, the results for `C=CC(=O)Nc1cccc(-c2cc(-c3cccnc3)cc3cnc(N)nc23)c1` [C035, N-(3-(2-amino-6-(pyridin-3-yl)quinazolin-8-yl)phenyl)acrylamide] are > 50 nM, > 50% and < 100 nM.

For `C=CC(=O)N1CCC(c2nc(-c3ccc(Oc4cc(C(F)(F)F)ccn4)cc3)n3c(N)nccc23)C1` (centres unmarked) [C196, 1-(3-(5-amino-3-(4-((4-(trifluoromethyl)pyridin-2-yl)oxy)phenyl)imidazo[1,5-c]pyrimidin-1-yl)pyrrolidin-1-yl)prop-2-en-1-one], the half-maximal inhibitory concentration (IC50) in experiment [1] is < 50 nM. In experiment [2], the inhibition at 0.1 µM is > 50% and the IC50 is < 100 nM. Consider `C=CC(=O)N1CCCC(n2c(-c3ccccc3Cl)nc3cnc(N)nc32)C1` (centres unmarked) [C027, 1-(3-(2-amino-8-(2-chlorophenyl)-9H-purin-9-yl)piperidin-1-yl)prop-2-en-1-one], for which, in experiment [2], the inhibition at 0.1 µM was < 50%. Consider `C=CC(=O)N1CCCC(c2cc(-c3ccccc3)cc3c(N)ncnc23)C1` (centres unmarked) [C034, 1-(3-(4-amino-6-phenylquinazolin-8-yl)piperidin-1-yl)prop-2-en-1-one], for which the inhibition at 0.1 µM in experiment [2] was < 50%. Still for that read-out and setting: then `C=CC(=O)Nc1cccc(-c2cc(-c3cccc(Nc4ccccc4)c3)cc3c(N)ncnc23)c1` [C022, N-(3-(4-amino-6-(3-(phenylamino)phenyl)quinazolin-8-yl)phenyl)acrylamide], with < 50%. Consider `C=CC(=O)N1CCC(c2cc(-c3ccc(Oc4ccccn4)cc3OC)cc3cnc(N)nc23)C1` (centres unmarked) [C168, 1-(3-(2-amino-6-(2-methoxy-4-(pyridin-2-yloxy)phenyl)quinazolin-8-yl)pyrrolidin-1-yl)prop-2-en-1-one], for which the inhibition at 0.1 µM in experiment [2] was < 50%. Still for that read-out and setting: then `C=CC(=O)N1CCC(c2cc(-c3ccc(C(=O)Nc4ccccc4)cc3)n3cnccc23)C1` (centres unmarked) [C054, 4-(5-(1-acryloylpyrrolidin-3-yl)pyrrolo[1,2-c]pyrimidin-7-yl)-N-phenylbenzamide], with < 50%; and `C=CC(=O)Nc1cccc(-c2cc(-c3ccc(Oc4ccccc4)cc3)c(N)c3cncnc23)c1` [C182, N-(3-(5-amino-6-(4-phenoxyphenyl)quinazolin-8-yl)phenyl)acrylamide], with < 50%; and `C=CC(=O)Nc1cccc(-c2cc(-c3ccc(Oc4cc(C(F)(F)F)ccn4)cc3Cl)cc3cncnc23)c1` [C088, N-(3-(6-(2-chloro-4-((4-(trifluoromethyl)pyridin-2-yl)oxy)phenyl)quinazolin-8-yl)phenyl)acrylamide], with > 50%.

As to `C=CC(=O)Nc1cccc(-c2cc(-c3cncc(OC)c3)cc3cnc(N)nc23)c1` [C110, N-(3-(2-amino-6-(5-methoxypyridin-3-yl)quinazolin-8-yl)phenyl)acrylamide], in experiment [2], the inhibition at 0.1 µM was > 50%. Consider `C=CC(=O)Nc1cccc(-c2cc(-c3ccc(C(=O)Nc4ccccn4)cc3)n3cnccc23)c1` [C044, 4-(5-(3-acrylamidophenyl)pyrrolo[1,2-c]pyrimidin-7-yl)-N-(pyridin-2-yl)benzamide], for which, in experiment [2], the inhibition at 0.1 µM was < 50%.

Consider `C=CC(=O)N1CCC(c2nc(-c3ccc(Oc4ccccn4)c(OC)c3)n3c(N)nccc23)C1` (centres unmarked) [C212, 1-(3-(5-amino-3-(3-methoxy-4-(pyridin-2-yloxy)phenyl)imidazo[1,5-c]pyrimidin-1-yl)pyrrolidin-1-yl)prop-2-en-1-one], for which, in experiment [2], the inhibition at 0.1 µM was > 50% and the IC50 is < 100 nM.

As for `C=CC(=O)N1CCC(c2cc(-c3ccc(C(=O)Nc4cc(C#N)ccn4)cc3)n3cnccc23)C1` (centres unmarked) [C161, 4-(5-(1-acryloylpyrrolidin-3-yl)pyrrolo[1,2-c]pyrimidin-7-yl)-N-(4-cyanopyridin-2-yl)benzamide], in experiment [2], the inhibition at 0.1 µM was > 50% and the 50% inhibitory concentration (IC50) is < 100 nM. On the same counts, the results for `C=CC(=O)N1CCC(c2cc(-c3ccc(Oc4cc(C(F)(F)F)ccn4)cc3F)c(N)c3cncnc23)C1` (centres unmarked) [C195, 1-(3-(5-amino-6-(2-fluoro-4-((4-(trifluoro-methyl)pyridin-2-yl)oxy)phenyl)quinazolin-8-yl)pyrrolidin-1-yl)prop-2-en-1-one] are < 50% and > 100 nM.

For the compound `C=CC(=O)N1CCC(c2cc(-c3ccc(C(=O)Nc4ccc(C(F)(F)F)cn4)cc3)cc3cncnc23)C1` (centres unmarked) [C142, 4-(8-(1-acryloylpyrrolidin-3-yl)quinazolin-6-yl)-N-(5-(trifluoromethyl)pyridin-2-yl)benzamide], the inhibition at 0.1 µM in experiment [2] was < 50%. The same measure, in the same setting: then `C=CC(=O)Nc1cccc(-c2cc(-c3ccc(C(=O)Nc4cc(C5CC5)ccn4)cc3Cl)c(N)c3cncnc23)c1` [C200, 4-(8-(3-acrylamidophenyl)-5-aminoquinazolin-6-yl)-3-chloro-N-(4-cyclopropylpyridin-2-yl)benzamide], with > 50%; and `C=CC(=O)Nc1cccc(-c2cc(-c3ccc(Oc4ccc(Cl)cc4)nc3)cc3cncnc23)c1` [C072, N-(3-(6-(6-(4-chlorophenoxy)pyridin-3-yl)quinazolin-8-yl)phenyl)acrylamide], with < 50%. Consider `C=CC(=O)Nc1cccc(-c2cc(-c3ccccc3Cl)cc3cnc(-c4ccccc4)nc23)c1` [C002, N-(3-(6-(2-chlorophenyl)-2-phenylquinazolin-8yl)phenyl)acrylamide], for which the inhibition at 0.1 µM in experiment [2] was < 50%. Same read-out and setting: with `C=CC(=O)Nc1cccc(-c2cc(-c3ccnc(C(F)(F)F)c3)cc3cncnc23)c1` [C018, N-(3-(6-(2-(trifluoromethyl)pyridin-4-yl)quinazolin-8-yl)phenyl)acrylamide] the figure was < 50%; with `C=CC(=O)N1CCC(c2cc(-c3ccc(C(=O)Nc4cc(C(F)(F)F)ccn4)cc3)n3cnccc23)C1` (centres unmarked) [C136, 4-(5-(1-acryloylpyrrolidin-3-yl)pyrrolo[1,2-c]pyrimidin-7-yl)-N-(4-(trifluoromethyl)pyridin-2-yl)benzamide], > 50%.
